# Source: US20250186437A1, “CARBOLINE COMPOUNDS AND USE THEREOF” (PTC Therapeutics, Inc., priority 2021, published 2025)
# Test system: MOLM-13 cells
# Experiment: MOLM-13 Cell Proliferation Assay (indicator of DHODH inhibition)
# Format: cell-based
# Settings: Homo sapiens, 72 Hours of culture, CellTiter-Glo, no uridine
# Description: The following assay was conducted to measure proliferation of MOLM-13 cells in the presence of each compound studied. This assay was included as an indicator of DHODH inhibition, as growth of MOLM-13 cells is known to depend on synthesis of pyrimidines using the de novo pathway, which can be blocked by inhibition of DHODH. • 1. MOLM-13 cells were cultured in RPMI 1640 medium+10% Fetal Bovine Serum (FBS). Only low passage cells (<20) were used for the compound tests • 2. On day 1, Log-phase growing Molm-13 Cells were counted and diluted to 10^5 cells/mL in RPMI 1640 medium+10% FBS • 3. 100 μL of diluted MOLM-13 cells in 96 well white plates were seeded, for a final density of 10^4 cells/well. • 4. 0.5 μL of pre-diluted 200× compounds or DMSO control was added to each well. The final DMSO concentration was 0.5%. • 5. After 72 Hours of culture at 37° C., 5% CO2, the plates were taken out and cooled to RT, then 50 μL CellTiter-Glo® (Promega) was added, and the composition was mixed at RT for 10 minutes. • 6. The plates were then read by ViewLux (Speed-fast, Gain-High, Bining-1X, 5 seconds).
row,Compound,IC50
1,"CN1CCN(c2ncc([C@H]3c4[nH]c5ccc(Cl)cc5c4CCN3c3nc(C(F)F)nc(C(F)(F)F)n3)cn2)CC1 [Compound 508, (1S)-6-chloro-2-[4-(difluoromethyl)-6-(trifluoromethyl)-1,3,5-triazin-2-yl]-1-[2-(4-methylpiperazin-1-yl)pyrimidin-5-yl]-2,3,4,9-tetrahydro-1H-pyrido[3,4-b]indole]",0.8 nM
2,"FC(F)(F)c1nc(N2CCc3c([nH]c4ccc(-n5nccn5)cc34)[C@@H]2c2ccc(N3CCOCC3)nc2)nc(C(F)(F)F)n1 [Compound 486, (1S)-2-[4,6-bis(trifluoromethyl)-1,3,5-triazin-2-yl]-1-[6-(morpholin-4-yl)pyridin-3-yl]-6-(2H-1,2,3-triazol-2-yl)-2,3,4,9-tetrahydro-1H-pyrido[3,4-b]indole]",0.4 nM
3,"Fc1cc(N2CCOCC2)ccc1C1c2[nH]c3ccc(Cl)cc3c2CCN1c1nccc(C(F)(F)F)n1 (stereo not shown) [Compound 277, 6-chloro-1-[2-fluoro-4-(morpholin-4-yl)phenyl]-2-[4-(trifluoromethyl)pyrimidin-2-yl]-2,3,4,9-tetrahydro-1H-pyrido[3,4-b]indole]",5.4 nM
4,"Fc1ccc(C2c3[nH]c4ccc(Cl)cc4c3CCN2c2nccc(Cl)n2)cc1 (stereo not shown) [Compound 13, 6-chloro-2-(4-chloropyrimidin-2-yl)-1-(4-fluorophenyl)-2,3,4,9-tetrahydro-1H-pyrido[3,4-b]indole]",12.4 nM
5,"Cc1nc(C)nc(N2CCc3c([nH]c4ccc(Cl)cc34)C2c2ccc(F)cc2)n1 (stereo not shown) [Compound 450, 6-chloro-2-(4,6-dimethyl-1,3,5-triazin-2-yl)-1-(4-fluorophenyl)-2,3,4,9-tetrahydro-1H-pyrido[3,4-b]indole]",29.8 nM
6,"FC(F)(F)c1ccnc(N2CCc3c([nH]c4ccc(Cl)cc34)C2c2ccc(N3C[C@@H]4C[C@H]3CO4)nc2)n1 (stereo partly drawn) [Compound 375, 6-chloro-1-{6-[(1S,4S)-2-oxa-5-azabicyclo[2.2.1]heptan-5-yl]pyridin-3-yl}-2-[4-(trifluoromethyl)pyrimidin-2-yl]-2,3,4,9-tetrahydro-1H-pyrido[3,4-b]indole]",6.7 nM
7,"Cc1ccc(C2c3[nH]c4ccc(Cl)cc4c3CCN2c2nc(C)cc(C)n2)cc1 (stereo not shown) [Compound 286, 6-chloro-2-(4,6-dimethylpyrimidin-2-yl)-1-(4-methylphenyl)-2,3,4,9-tetrahydro-1H-pyrido[3,4-b]indole]",4.1 nM
8,"Cc1cc(C)nc(N2CCc3c([nH]c4ccc(Cl)c(F)c34)C2c2ccc(C)c(F)c2F)n1 (stereo not shown) [Compound 205, 6-chloro-1-(2,3-difluoro-4-methylphenyl)-2-(4,6-dimethylpyrimidin-2-yl)-5-fluoro-2,3,4,9-tetrahydro-1H-pyrido[3,4-b]indole]",0.7 nM
9,"Cc1ccc(C2c3[nH]c4ccc(Cl)cc4c3CCN2c2nc(C(F)(F)F)cc(C(F)(F)F)n2)cc1 (stereo not shown) [Compound 360, 2-[4,6-bis(trifluoromethyl)pyrimidin-2-yl]-6-chloro-1-(4-methylphenyl)-2,3,4,9-tetrahydro-1H-pyrido[3,4-b]indole]",0.9 nM
10,"FC(F)(F)c1ccnc(N2CCc3c([nH]c4ccc(Cl)cc34)C2c2cnc(N3CC4CC3CO4)nc2)n1 (stereo not shown) [Compound 335, 6-chloro-1-[2-(2-oxa-5-azabicyclo[2.2.1]heptan-5-yl)pyrimidin-5-yl]-2-[4-(trifluoromethyl)pyrimidin-2-yl]-2,3,4,9-tetrahydro-1H-pyrido[3,4-b]indole]",7.6 nM
11,"CN(C)c1ncnc(N2CCc3c([nH]c4ccc(Cl)cc34)C2c2cnc(N3CCOCC3)nc2)n1 (stereo not shown) [Compound 297, 4-{6-chloro-1-[2-(morpholin-4-yl)pyrimidin-5-yl]-1,3,4,9-tetrahydro-2H-pyrido[3,4-b]indol-2-yl}-N,N-dimethyl-1,3,5-triazin-2-amine]",78 nM
12,"Fc1cnc(N2CCc3c([nH]c4ccc(Cl)cc34)C2c2ccc(N3CCOCC3)nc2)nc1 (stereo not shown) [Compound 382, 6-chloro-2-(5-fluoropyrimidin-2-yl)-1-[6-(morpholin-4-yl)pyridin-3-yl]-2,3,4,9-tetrahydro-1H-pyrido[3,4-b]indole]",13.4 nM
13,"Cc1ccc([C@H]2c3[nH]c4ccc(Cl)cc4c3CCN2c2nc(C(F)(F)F)nc(C(F)(F)F)n2)cc1 [Compound 386, (1S)-2-[4,6-bis(trifluoromethyl)-1,3,5-triazin-2-yl]-6-chloro-1-(4-methylphenyl)-2,3,4,9-tetrahydro-1H-pyrido[3,4-b]indole]",0.3 nM

# More lines, now with the values ahead:
row,IC50,Compound
1,1 nM,"Cc1cc(C)nc(N2CCc3c([nH]c4ccc(Cl)cc34)C2c2ccc(C)c(F)c2F)n1 (stereo not shown) [Compound 342, 6-chloro-1-(2,3-difluoro-4-methylphenyl)-2-(4,6-dimethylpyrimidin-2-yl)-2,3,4,9-tetrahydro-1H-pyrido[3,4-b]indole]"
2,1 nM,"Cc1ccc(C2c3[nH]c4ccc(Cl)c(F)c4c3CCN2c2ncc(Cl)cn2)c(F)c1F (stereo not shown) [Compound 195, 6-chloro-2-(5-chloropyrimidin-2-yl)-1-(2,3-difluoro-4-methylphenyl)-5-fluoro-2,3,4,9-tetrahydro-1H-pyrido[3,4-b]indole]"
3,4.3 nM,"Cc1ccc(C2c3[nH]c4cc(F)c(Cl)cc4c3CCN2c2ncc(C(F)(F)F)cn2)c(F)c1F (stereo not shown) [Compound 142, 6-chloro-1-(2,3-difluoro-4-methylphenyl)-7-fluoro-2-[5-(trifluoromethyl)pyrimidin-2-yl]-2,3,4,9-tetrahydro-1H-pyrido[3,4-b]indole]"
4,25 nM,"Cc1ccc(C2c3[nH]c4ccc(F)cc4c3CCN2c2nccc(C(F)(F)F)n2)c(F)c1F (stereo not shown) [Compound 493, 1-(2,3-difluoro-4-methylphenyl)-6-fluoro-2-[4-(trifluoromethyl)pyrimidin-2-yl]-2,3,4,9-tetrahydro-1H-pyrido[3,4-b]indole]"
5,15.3 nM,"Cc1ccc(C2c3[nH]c4cc(F)c(Cl)cc4c3CCN2c2ncc(C(F)(F)F)cn2)cc1 (stereo not shown) [Compound 97, 6-chloro-7-fluoro-1-(4-methylphenyl)-2-[5-(trifluoromethyl)pyrimidin-2-yl]-2,3,4,9-tetrahydro-1H-pyrido[3,4-b]indole]"
6,0.9 nM,"Cc1ccc(C2c3[nH]c4cc(F)c(Cl)cc4c3CCN2c2nc(C(F)(F)F)cc(C(F)(F)F)n2)cc1 (stereo not shown) [Compound 154, 2-[4,6-bis(trifluoromethyl)pyrimidin-2-yl]-6-chloro-7-fluoro-1-(4-methylphenyl)-2,3,4,9-tetrahydro-1H-pyrido[3,4-b]indole]"
7,1.1 nM,"Cc1cc(C#N)nc(N2CCc3c([nH]c4cc(F)c(Cl)cc34)C2c2ccc(C)c(F)c2F)n1 (stereo not shown) [Compound 153, 2-[6-chloro-1-(2,3-difluoro-4-methylphenyl)-7-fluoro-1,3,4,9-tetrahydro-2H-pyrido[3,4-b]indol-2-yl]-6-methylpyrimidine-4-carbonitrile]"
8,2.2 nM,"Cc1ccc(C2c3[nH]c4cc(F)c(Cl)cc4c3CCN2c2nc(C)c(C)c(C)n2)c(F)c1F (stereo not shown) [Compound 169, 6-chloro-1-(2,3-difluoro-4-methylphenyl)-7-fluoro-2-(4,5,6-trimethylpyrimidin-2-yl)-2,3,4,9-tetrahydro-1H-pyrido[3,4-b]indole]"
9,0.7 nM,"Cc1ccc(C2c3[nH]c4ccc(Cl)cc4c3CCN2c2nncc(C(F)(F)F)n2)c(F)c1F (stereo not shown) [Compound 403, 6-chloro-1-(2,3-difluoro-4-methylphenyl)-2-[5-(trifluoromethyl)-1,2,4-triazin-3-yl]-2,3,4,9-tetrahydro-1H-pyrido[3,4-b]indole]"
